Laboratory results: patent US20240300976A1, “COMPOUNDS AS MODULATORS OF ENDOPLASMIC RETICULUM AMINOPEPTIDASE 1 (ERAP1)” (GREY WOLF THERAPEUTICS LIMITED, priority 2020, published 2024)

Target: T1, ERAP1 (Homo sapiens, UniProt Q9NZ08)
T1 construct: Purified ERAP1(37-941)-10His (ERAP1); 10His (C)
Experiment: ERAP1 mediated hydrolysis of an amide substrate (10-mer inhibition assay), biochemical system
Conditions: 10-mer substrate, incubated at 23° C. for 1 h, excitation 279 nm and emission 355 nm; read-out: IC50 vs Decapeptide WRVYEKC(Dnp)ALK-acid (where Dnp is Dinitrophenyl maleimide) (10-mer)
From the text: This peptide has minimal fluorescence as the N-terminal tryptophan residue's fluorescence is quenched by the dinitrophenol (DNP) residue within the peptide. However, as ERAP1 hydrolyses the N-terminal amide bond and tryptophan is released this internal quenching is lost and the reaction is monitored by the increase in tryptophan fluorescence over the course of the assay. For the purposes of this application this assay is referred to as the “1 Omer inhibition assay” and compound potencies are calculated and expressed as 1050 as would be familiar to a person skilled in the art.
Biological Assay 1: ERAP1 Mediated Hydrolysis of an Amide Substrate Measured in a Biochemical System
• 1× Assay buffer (AB): 25 mM Bis-tris propane, 0.05% w/v Hydroxypropylmethylcellulose pH 7.75 made with Optima grade water • Decapeptide WRVYEKC(Dnp)ALK-acid (where Dnp is Dinitrophenyl maleimide) (10-mer) • L-Leucine 7-amido-4-methylcoumarin (L-AMC) • Purified ERAP1(37-941)-10His (ERAP1)
12.5 μL ERAP1 enzyme in 1×AB was combined with 250 nL test compound in DMSO. 12.5 μL of either 240 μM L-AMC in 1×AB or 100 μM 10-mer in 1×AB was added to the reaction and incubated at 23° C. for 1 h. For detection, plates were read at excitation 365 nm and emission 442 nm (L-AMC) or excitation 279 nm and emission 355 nm (10-mer). Compound IC50 was determined using a 4-parameter equation.

T1 sequence (Q9NZ08 37-941): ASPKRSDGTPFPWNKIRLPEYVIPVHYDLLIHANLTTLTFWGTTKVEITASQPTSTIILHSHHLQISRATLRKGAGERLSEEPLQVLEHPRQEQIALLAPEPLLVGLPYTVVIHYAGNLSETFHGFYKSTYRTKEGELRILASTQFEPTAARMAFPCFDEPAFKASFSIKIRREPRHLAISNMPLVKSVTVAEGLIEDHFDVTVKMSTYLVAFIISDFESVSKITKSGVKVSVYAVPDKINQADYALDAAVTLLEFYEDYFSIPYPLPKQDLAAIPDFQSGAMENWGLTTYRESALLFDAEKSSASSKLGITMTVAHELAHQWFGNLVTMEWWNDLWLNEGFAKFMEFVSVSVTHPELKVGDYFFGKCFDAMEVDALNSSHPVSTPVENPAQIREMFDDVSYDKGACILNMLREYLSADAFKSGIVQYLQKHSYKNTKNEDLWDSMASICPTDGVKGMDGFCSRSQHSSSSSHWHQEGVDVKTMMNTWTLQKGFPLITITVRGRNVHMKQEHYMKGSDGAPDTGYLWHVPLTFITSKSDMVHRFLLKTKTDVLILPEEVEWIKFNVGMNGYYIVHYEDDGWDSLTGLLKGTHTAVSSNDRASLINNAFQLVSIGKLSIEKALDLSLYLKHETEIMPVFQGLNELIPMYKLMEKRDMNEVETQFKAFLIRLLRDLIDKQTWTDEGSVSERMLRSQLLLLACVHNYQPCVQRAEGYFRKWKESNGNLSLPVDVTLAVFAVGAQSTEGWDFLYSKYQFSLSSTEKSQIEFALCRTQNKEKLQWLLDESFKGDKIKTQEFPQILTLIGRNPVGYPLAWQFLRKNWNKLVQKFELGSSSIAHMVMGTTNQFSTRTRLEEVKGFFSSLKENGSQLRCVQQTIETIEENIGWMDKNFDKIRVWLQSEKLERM

SMILES	IC50 [nM]
N#Cc1ccc2c(c1)NS(=O)(=O)c1cc(C(=O)O)ccc1OCCCC1CCCCN21 (single isomer, unassigned) [Example 8, 2-cyano-6,7,8,9,9a,10,11,12-octahydro-19H-dibenzo[b,f]pyrido[1,2-h][1]oxa[4]thia[5,8]diazacyclododecine-16-carboxylic acid 18,18-dioxide]	< 250
N#Cc1ccc2c(c1)NS(=O)(=O)c1cc(C(=O)O)ccc1OCCCC1CCCCN21 (single isomer, unassigned) [Example 9, 2-cyano-6,7,8,9,9a,10,11,12-octahydro-19H-dibenzo[b,f]pyrido[1,2-h][1]oxa[4]thia[5,8]diazacyclododecine-16-carboxylic acid 18,18-dioxide]	< 250
N#Cc1ccc2c(c1)NS(=O)(=O)c1cc(C(=O)O)ccc1OCC1CCCCN21 (single isomer, unassigned) [Example 10, 8-cyano-12,13,14,15,15a,16-hexahydro-6H-dibenzo[b,f]pyrido[1,2-h][1,4,5,8]oxathiadiazecine-3-carboxylic acid 5,5-dioxide]	< 250
N#Cc1ccc2c(c1)NS(=O)(=O)c1cc(C(=O)O)ccc1OCC1CCCCN21 (single isomer, unassigned) [Example 11, 8-cyano-12,13,14,15,15a,16-hexahydro-6H-dibenzo[b,f]pyrido[1,2-h][1,4,5,8]oxathiadiazecine-3-carboxylic acid 5,5-dioxide]	250 to 1000
N#Cc1ccc2c(c1)NS(=O)(=O)c1cc(C(=O)O)ccc1OCCCCC1CCCCN21 (single isomer, unassigned) [Example 12, 2-cyano-7,8,9,9a,10,11,12,13-octahydro-6H,20H-dibenzo[b,f]pyrido[1,2-h][1]oxa[4]thia[5,8]diazacyclotridecine-17-carboxylic acid 19,19-dioxide]	250 to 1000
N#Cc1ccc2c(c1)NS(=O)(=O)c1cc(C(=O)O)ccc1OCCCCC1CCCCN21 (single isomer, unassigned) [Example 13, 2-cyano-7,8,9,9a,10,11,12,13-octahydro-6H,20H-dibenzo[b,f]pyrido[1,2-h][1]oxa[4]thia[5,8]diazacyclotridecine-17-carboxylic acid 19,19-dioxide]	< 250
N#Cc1cc2c(cc1Cl)N1CCCCC1COc1ccc(C(=O)O)cc1S(=O)(=O)N2 (single isomer, unassigned) [Example 16, 9-chloro-8-cyano-12,13,14,15,15a,16-hexahydro-6H-dibenzo[b,f]pyrido[1,2-h][1,4,5,8]oxathiadiazecine-3-carboxylic acid 5,5-dioxide]	> 1000
N#Cc1cc2c(cc1Cl)N1CCCCC1COc1ccc(C(=O)O)cc1S(=O)(=O)N2 (single isomer, unassigned) [Example 17, 9-chloro-8-cyano-12,13,14,15,15a,16-hexahydro-6H-dibenzo[b,f]pyrido[1,2-h][1,4,5,8]oxathiadiazecine-3-carboxylic acid 5,5-dioxide]	< 250
CS(=O)(=O)c1ccc2c(c1)NS(=O)(=O)c1cc(C(=O)O)ccc1OCC1CCCCN21 (single isomer, unassigned) [Example 19, 8-(methylsulfonyl)-12,13,14,15,15a,16-hexahydro-6H-dibenzo[b,f]pyrido[1,2-h][1,4,5,8]oxathiadiazecine-3-carboxylic acid 5,5-dioxide]	< 250
CS(=O)(=O)c1ccc2c(c1)NS(=O)(=O)c1cc(C(=O)O)ccc1OCC1CCCCN21 (single isomer, unassigned) [Example 20, 8-(methylsulfonyl)-12,13,14,15,15a,16-hexahydro-6H-dibenzo[b,f]pyrido[1,2-h][1,4,5,8]oxathiadiazecine-3-carboxylic acid 5,5-dioxide]	> 1000
N#Cc1cc2c(cc1Cl)N1CCCCC1CCCCOc1ccc(C(=O)O)cc1S(=O)(=O)N2 (single isomer, unassigned) [Example 26, 3-chloro-2-cyano-7,8,9,9a,10,11,12,13-octahydro-6H, 20H-dibenzo[b,f]pyrido[1,2-h][1]oxa[4]thia[5,8]diazacyclotridecine-17-carboxylic acid 19,19-dioxide]	< 250
N#Cc1cc2c(cc1Cl)N1CCCCC1CCCCOc1ccc(C(=O)O)cc1S(=O)(=O)N2 (single isomer, unassigned) [Example 27, 3-chloro-2-cyano-7,8,9,9a,10,11,12,13-octahydro-6H, 20H-dibenzo[b,f]pyrido[1,2-h][1]oxa[4]thia[5,8]diazacyclotridecine-17-carboxylic acid 19,19-dioxide]	< 250
N#Cc1ccc2c(c1)NS(=O)(=O)c1cc(C(=O)O)ccc1OC/C=C/CC1CCCCN21 (single isomer, unassigned) [Example 32, (E)-2-cyano-7,8,9,9a,10,13-hexahydro-6H, 20H-dibenzo[b,f]pyrido[1,2-h][1]oxa[4]thia[5,8]diazacyclotridecine-17-carboxylic acid 19,19-dioxide]	< 250
N#Cc1ccc2c(c1)NS(=O)(=O)c1cc(C(=O)O)ccc1OC/C=C/CC1CCCCN21 (single isomer, unassigned) [Example 33, (E)-2-cyano-7,8,9,9a,10,13-hexahydro-6H, 20H-dibenzo[b,f]pyrido[1,2-h][1]oxa[4]thia[5,8]diazacyclotridecine-17-carboxylic acid 19,19-dioxide]	> 1000
N#Cc1cc2c(cc1F)N1CCCCC1COc1ccc(C(=O)O)cc1S(=O)(=O)N2 (single isomer, unassigned) [Example 37, 8-cyano-9-fluoro-12,13,14,15,15a,16-hexahydro-6H-dibenzo[b,f]pyrido[1,2-h][1,4,5,8]oxathiadiazecine-3-carboxylic acid 5,5-dioxide]	> 1000
N#Cc1cc2c(cc1F)N1CCCCC1COc1ccc(C(=O)O)cc1S(=O)(=O)N2 (single isomer, unassigned) [Example 38, 8-cyano-9-fluoro-12,13,14,15,15a,16-hexahydro-6H-dibenzo[b,f]pyrido[1,2-h][1,4,5,8]oxathiadiazecine-3-carboxylic acid 5,5-dioxide]	< 250
CS(=O)(=O)c1cc2c(cc1F)N1CCCCC1COc1ccc(C(=O)O)cc1S(=O)(=O)N2 (single isomer, unassigned) [Example 39, 9-fluoro-8-(methylsulfonyl)-12,13,14,15,15a,16-hexahydro-6H-dibenzo[b,f]pyrido[1,2-h][1,4,5,8]oxathiadiazecine-3-carboxylic acid 5,5-dioxide]	< 250
CS(=O)(=O)c1cc2c(cc1F)N1CCCCC1COc1ccc(C(=O)O)cc1S(=O)(=O)N2 (single isomer, unassigned) [Example 40, 9-fluoro-8-(methylsulfonyl)-12,13,14,15,15a,16-hexahydro-6H-dibenzo[b,f]pyrido[1,2-h][1,4,5,8]oxathiadiazecine-3-carboxylic acid 5,5-dioxide]	> 1000
N#Cc1cc2c(cc1F)N1CCCCC1CCCOc1ccc(C(=O)O)cc1S(=O)(=O)N2 (single isomer, unassigned) [Example 41, 2-cyano-3-fluoro-6,7,8,9,9a,10,11,12-octahydro-19H-dibenzo[b,f]pyrido[1,2-h][1]oxa[4]thia[5,8]diazacyclododecine-16-carboxylic acid 18,18-dioxide]	< 250
